Source: patent US20180280319A1, “COMPOUNDS AND COMPOSITIONS FOR TREATMENT OF BREAST CANCER” (UNIVERSITY OF THE SCIENCES, priority 2017, published 2018)
Entries after “also recorded” stand apart in the source; their conditions may differ.

What was measured:
MDA-MB-231 cells [1] = test: Caspase 3/7 activity assay in MDA-MB-231 cells; assay type: cell-based, human; conditions: for caspase 3/7 positive cells: DMSO 6.4±1.1%, n=3
Protocol: To identify mechanisms involved in the apoptotic death induced by compound 3D the iodine group (3D) was substituted by a fluorine group (3C) and a caspase 3/7 activity assay kit was utilized, which detects downstream effector apoptosis-causing caspases to assess death of TNBC cells. […] Quantitatively, 49.5±8.3% of cells were caspase 3/7 positive when treated with compound 3D compared to only 6.4±1.1% in the DMSO control group p<0.005 (FIG. 3D).
Further substitution experiments were conducted, replacing the para iodine with chlorine or bromine, as well as experiments wherein the sulfone was removed. To help identify mechanisms involved in the apoptotic death induced by compound 3D, the iodine group was substituted with chlorine or bromine. A caspase 3/7 activity assay kit was used to detect downstream effector apoptosis-causing caspases to assess death of TNBC cells. […] Additionally, when a compound was generated lacking the sulfonyl group, all cytotoxic effects of 3D on TNBC cells was abolished.

MDA-MB-231 cells [2] = test: Quantitative annexin V death assay (flow cytometry) in MDA-MB-231 cells; assay type: cell-based, human; conditions: n=4-7; for total annexin V-positive cells: DMSO 13.5±2.2%; for live cell population: DMSO 86.4±2.2%
Protocol: To confirm what type of cell death was responsible for the observed activity, a quantitative annexin V death assay was performed to quantify the amount of necrosis (non-specific toxicity) vs apoptosis (programmed cell death) induced by compound 3D. […] Compound 3D decreased live cell population from 86.4±2.2% (DMSO) to 48.1±3.0% (3D: p<0.001) and increased total annexin V-positive cells from 13.5±2.2% (DMSO) to 51.4±3.1% (3D: p<0.001).

MDA-MB-231 cells [3] = test: Cell morphology under phase contrast microscope, MDA-MB-231 cells; assay type: cell-based, human
Description: FIGS. 2B-2G are images of MDA-MB-231 cells treated with DMSO (control), NS-123 and 3D (FIGS. 2B, 2D and 2F) under a phase contrast microscope (10×) and apoptosis profiles for the respective images (FIGS. 2C, 2E and 2G) determined using flow cytometry.
To further investigate the type of cell death induced by treatment of TNBC cells with 3D, its activity was compared to the original parent radiosensitizing compound NS-123 (4-bromo-3-nitrophenyl propan-1-one). FIG. 2A depicts the chemical structures of both the parent NS-123 (left) and compound 3D (right) highlighting the substitution with iodide and sulfonyl moieties in 3D structure compared to a bromide and carbonyl in the original radiosensitizing NS-123.

HS-578T TNBC cell line = test: Caspase 3/7 activation in Hs578T cells; assay type: cell-based; conditions: 10 μM, 4 hr
Description: (§1) FIGS. 7A-7H illustrate the finding that similar death-inducing effects are observed in other triple negative cells lines BT-549 and Hs578T. […] FIG. 7D represents a graphical quantification of caspase3/7 activation by 3D in BT-549. […] FIG. 7H represents a graphical quantification of caspase3/7 activation by 3D in HS-578T.
(§2) In order to explore the broader effects of 3D in the killing of TNBC cells, the experiments reported in Example 2 were repeated in 2 additional cells lines BT-549 and Hs578T.

[4] = tested on: ER-positive breast cancer cells; conditions: U.S. Pat. No. 8,541,476; cited from earlier work
[5] = tested on: MCF-10A (normal mammary cells); test: Annexin V assay in normal MCF-10A mammary cells; assay type: cell-based; conditions: normal MCF-10A cells, 10 μM, n=5
Description: (§3) The effects of compound 3D on survival of MCF-10A (normal mammary cells) were thus examined.

BT-549 TNBC cell line = test: Caspase 3/7 activation in BT-549 cells; assay type: cell-based; conditions: 10 μM, 4 hr
Description: as §1, §2

MDA-MB-231 cells [6] = test: Colony formation of MDA-MB-231 cells with and without radiation; assay type: cell-based, human; conditions: 2 Gray radiation dose
Protocol: FIG. 1A is a set of images illustrating colonies of MDA-MB-231 cells exposed to DMSO (control) and compound 3D (10 μM, 4 hrs).
FIG. 1B reports the results depicted in FIG. 1A as a bar graph.
Compound 3D was previously shown to radiosensitize ER-positive breast cancer and prostate cancer cells (U.S. Pat. No. 8,541,476). This compound was then tested to see if it would radiosensitize aggressive TNBC cells such as MDA-MB-231.

prostate cancer cells = conditions: U.S. Pat. No. 8,541,476; cited from earlier work
[7] = tested on: MCF-10A cells co-cultured with MDA-MB-231 cells; test: Co-culture of MCF-10A and MDA-MB-231 cells, fluorescence microscopy; assay type: cell-based, human; conditions: 1:1 MCF-10A (mcherry red) and MDA-MB-231 (GFP-green); 10 μM, 4 hrs; n=3
Protocol: To validate the selective nature of 3D towards cancer cells, normal human mammary cells were co-cultured (MCF-10A) with human TNBC cells (MDA-MB-231) in the same culture dish (FIG. 4B) and incubated with 3D to assess the compound's selectivity. This experiment was done by plating a 1:1 ratio of MCF-10A cells (mcherry red) and MDA-MB-231 cells (GFP-green) and challenging them with DMSO or 3D (10 μM) for 4 hrs as described in Example 2. Following the treatments, pictures were acquired at 20× using the EVOS-Fl microscope. […] This co-culture was repeated 3 separate times on different passages (n=3).

MDA-MB-231 cells [8] = test: ROS detection (Muse oxidative stress kit) in MDA-MB-231 cells; assay type: cell-based, human; conditions: 10 μM, 4 hrs
Description: (§4) FIG. 4B is a set of images of MDA-MB-231 (TNBC cells) co-cultured with MCF-10A (normal mammary cells) after exposure to DMSO control (left) as well as 3D (right). FIGS. 5A-5E illustrate the finding that 3D induces a rise in reactive oxygen species (ROS) inside TNBC cells and not normal healthy cells.
(§5) Manipulation of reactive oxygen species (ROS) levels is one potential mechanistic target for anti-cancer molecules because high levels of ROS can promote cell death. […] Levels of ROS were detected by assessing the conversion of a non-fluorescent compound (dihydroethidium) to its oxidized metabolite (ethidium bromide) in the presence of intracellularly accumulated ROS following 3D administration using a Muse oxidative stress kit.

H2AX (P-H2AX ser139) = test: Western blot of H2AX phosphorylation in MDA-MB-231 cells; assay type: cell-based, human; conditions: 4 hr treatment
Description: (§6) Effects of 3D on DNA damage in MDA-MB-231 cells was compared to a matching dose of DMSO vehicle.

MCF-10A cells = test: ROS detection (Muse oxidative stress kit) in normal MCF-10A cells; assay type: cell-based, human; conditions: 10 μM, 4 hrs, p=0.9
Description: as §4, §5

ATM (P-ATM ser1981) = test: Western blot of ATM phosphorylation in MDA-MB-231 cells; assay type: cell-based, human; conditions: 4 hr treatment
Description: as §6

[9] = tested on: MCF-10A (normal mammary cells); test: Cell morphology of normal MCF-10A cells after treatment; assay type: cell-based; conditions: 10 μM, 4 hrs
Description: as §3

| Structure (SMILES) | apoptosis / killing of TNBC cells by caspase 3/7 activation (MDA-MB-231 cells [1]) | caspase 3/7 positive cells (MDA-MB-231 cells [1]) [%] | total annexin V-positive cells (MDA-MB-231 cells [2]) [%] | live cell population (MDA-MB-231 cells [2]) [%] | cell appearance under phase contrast microscope (10×) (MDA-MB-231 cells [3]) | caspase 3/7 activation (HS-578T TNBC cell line) | caspase 3/7 activation (BT-549 TNBC cell line) | ROS accumulation in TNBC cells (MDA-MB-231 cells [8]) | also measured |
| --- | --- | --- | --- | --- | --- | --- | --- | --- | --- |
| CCS(=O)(=O)c1ccc(F)c([N+](=O)[O-])c1 [Compound 3C, 4-(Ethylsulfonyl)-1-fluoro-2-nitrobenzene] | very low rates of apoptosis | 7.9±3.0 |  |  |  |  |  |  |  |
| CCC(=O)c1ccc(Br)c([N+](=O)[O-])c1 [NS-123, 4-bromo-3-nitrophenyl propan-1-one, reference compound] |  |  | 11.6±2.4 | 88.3±2.4 | normal healthy features |  |  |  |  |
| CCS(=O)(=O)c1ccc(I)c([N+](=O)[O-])c1 [Compound 3D, 4-(Ethylsulfonyl)-1-iodo-2-nitrobenzene] | induced specific caspase 3/7 activation; also recorded: high rates of apoptosis | 49.5±8.3 | 51.4±3.1 | 48.1±3.0 | rounded and unhealthy; also recorded: noticeably misshapen | increased caspase 3/7 activation | increased caspase 3/7 activation; also recorded: induced an activated caspase-3/7 population | significantly raised the levels of ROS | early apoptosis population (MDA-MB-231 cells [1]; DMSO 0.7±0.1%): 0.9±0.2%; caspase 3/7-positive cells in late apoptosis phase (MDA-MB-231 cells [1]; DMSO 5.8±1.0%): 47.4±8.5%; radiosensitization [4]: radiosensitize; total apoptosis ([5]; DMSO 12.7±5.3%): 12.2±3.2%; cell viability ([5]; DMSO 85.6±5.9%): 86.9±3.3%; radiosensitizing effect on colony formation (MDA-MB-231 cells [6]): failed to enhance this action further; also recorded: no radiosensitizing effects; radiosensitization (prostate cancer cells): radiosensitize; selectivity of apoptotic death in co-culture [7]: apoptotic death selectively occurred in the green cells (TNBC) while the red cells (normal) remained healthy; increase in ROS accumulation compared to DMSO (MDA-MB-231 cells [8]; p=0.00005): ~3 fold; total H2AX (H2AX (P-H2AX ser139)): increased slightly; phosphorylated levels of H2AX (P-H2AX ser139) (H2AX (P-H2AX ser139); vs DMSO): significant increase; also recorded: induction; ROS accumulation in normal cells (MCF-10A cells): lacking any significant effects; also recorded: no significant increase; total ATM (ATM (P-ATM ser1981)): remains unchanged; phosphorylated levels of ATM (P-ATM ser1981) (ATM (P-ATM ser1981); vs DMSO): significant increase; also recorded: induction; effect on morphology / health of normal cells [9]: morphology remains intact; also recorded: no observable effect on the health of non-TNBC cells |
| O=[N+]([O-])c1ccccc1I [1-iodo-2-nitrobenzene, reference compound] |  |  |  |  |  | inactive | inactive | inactive |  |
